Data published in PubChem BioAssay (NCI).
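Each compound was tested at five concentrations against cells in 96-well plates for 48 hours. TGI marks complete inhibition of growth.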

Legend:
Experiment in all cases: NCI-60 cell line screen, 48 h
OVCAR-4 ovarian = test system: OVCAR-4 ovarian
SF-268 CNS = test system: SF-268 CNS
SK-MEL-28 melanoma = test system: SK-MEL-28 melanoma
MCF7 breast = test system: MCF7 breast
COLO 205 colon = test system: COLO 205 colon
A549 NSCLC = test system: A549 NSCLC
UACC-257 melanoma = test system: UACC-257 melanoma
SN12C renal = test system: SN12C renal
UACC-62 melanoma = test system: UACC-62 melanoma
SK-MEL-5 melanoma = test system: SK-MEL-5 melanoma
HCC-2998 colon = test system: HCC-2998 colon
SF-539 CNS = test system: SF-539 CNS
IGROV1 ovarian = test system: IGROV1 ovarian
LOX IMVI melanoma = test system: LOX IMVI melanoma
HL-60(TB) leukemia = test system: HL-60(TB) leukemia
M14 melanoma = test system: M14 melanoma
MDA-N = test system: MDA-N
MDA-MB-435 = test system: MDA-MB-435
KM12 colon = test system: KM12 colon
MALME-3M melanoma = test system: MALME-3M melanoma
SNB-19 CNS = test system: SNB-19 CNS
SK-OV-3 ovarian = test system: SK-OV-3 ovarian
MOLT-4 leukemia = test system: MOLT-4 leukemia
RXF 393 renal = test system: RXF 393 renal
U251 CNS = test system: U251 CNS
OVCAR-3 ovarian = test system: OVCAR-3 ovarian
UO-31 renal = test system: UO-31 renal
PC-3 prostate = test system: PC-3 prostate
TK-10 renal = test system: TK-10 renal
HCT-15 colon = test system: HCT-15 colon
HCT-116 colon = test system: HCT-116 colon
DU-145 prostate = test system: DU-145 prostate
HOP-62 NSCLC = test system: HOP-62 NSCLC
HT29 colon = test system: HT29 colon
OVCAR-5 ovarian = test system: OVCAR-5 ovarian
HOP-92 NSCLC = test system: HOP-92 NSCLC
BT-549 breast = test system: BT-549 breast
SR leukemia = test system: SR leukemia
K-562 leukemia = test system: K-562 leukemia
NCI-H522 lung = test system: NCI-H522 lung
MDA-MB-231 breast = test system: MDA-MB-231 breast
ACHN renal = test system: ACHN renal
CAKI-1 renal = test system: CAKI-1 renal
A498 renal = test system: A498 renal
SW-620 colon = test system: SW-620 colon
NCI-H226 lung = test system: NCI-H226 lung
SF-295 CNS = test system: SF-295 CNS
SNB-75 CNS = test system: SNB-75 CNS
OVCAR-8 ovarian = test system: OVCAR-8 ovarian
EKVX NSCLC = test system: EKVX NSCLC
T-47D breast = test system: T-47D breast
NCI-H23 lung = test system: NCI-H23 lung
SK-MEL-2 melanoma = test system: SK-MEL-2 melanoma
CCRF-CEM leukemia = test system: CCRF-CEM leukemia
NCI/ADR-RES ovarian = test system: NCI/ADR-RES ovarian
RPMI-8226 leukemia = test system: RPMI-8226 leukemia
786-0 renal = test system: 786-0 renal

CN1CCN(CCCCN2c3ccccc3Sc3ccc(C(=O)c4ccccc4)cc32)CC1
TGI (OVCAR-4 ovarian): 6.13 µM | TGI (SF-268 CNS): 13 µM | TGI (SK-MEL-28 melanoma): 2850 nM | TGI (MCF7 breast): 3.65 µM | TGI (COLO 205 colon): 3.28 µM | TGI (A549 NSCLC): 3.55 µM | TGI (UACC-257 melanoma): 3.36 µM | TGI (SN12C renal): 3.19 µM | TGI (UACC-62 melanoma): 2520 nM | TGI (SK-MEL-5 melanoma): 3.08 µM | TGI (HCC-2998 colon): 2940 nM | TGI (SF-539 CNS): 3.41 µM | TGI (IGROV1 ovarian): 3.19 µM | TGI (LOX IMVI melanoma): 3.22 µM | TGI (HL-60(TB) leukemia): 3.66 µM | TGI (M14 melanoma): 3.32 µM | TGI (MDA-N): 2920 nM | TGI (MDA-MB-435): 3.24 µM | TGI (KM12 colon): 2490 nM | TGI (MALME-3M melanoma): 7.3 µM | TGI (SNB-19 CNS): 3.45 µM | TGI (SK-OV-3 ovarian): 2940 nM | TGI (MOLT-4 leukemia): 3.43 µM | TGI (RXF 393 renal): 2570 nM | TGI (U251 CNS): 3.09 µM | TGI (OVCAR-3 ovarian): 3.71 µM | TGI (UO-31 renal): 6.27 µM | TGI (PC-3 prostate): 2830 nM | TGI (TK-10 renal): 3.11 µM | TGI (HCT-15 colon): 3.06 µM | TGI (HCT-116 colon): 3.29 µM | TGI (DU-145 prostate): 6.73 µM | TGI (HOP-62 NSCLC): 3.16 µM | TGI (HT29 colon): 2600 nM | TGI (OVCAR-5 ovarian): 7.43 µM | TGI (HOP-92 NSCLC): 4.68 µM | TGI (BT-549 breast): 3.04 µM | TGI (SR leukemia): 4.61 µM | TGI (K-562 leukemia): 2790 nM | TGI (NCI-H522 lung): 3.44 µM | TGI (MDA-MB-231 breast): 3.38 µM | TGI (ACHN renal): 3.06 µM | TGI (CAKI-1 renal): 2750 nM | TGI (A498 renal): 3.12 µM | TGI (SW-620 colon): 3.2 µM | TGI (NCI-H226 lung): 3.7 µM | TGI (SF-295 CNS): 3.45 µM | TGI (SNB-75 CNS): 2580 nM | TGI (OVCAR-8 ovarian): 2970 nM | TGI (EKVX NSCLC): 15.5 µM | TGI (T-47D breast): 45.4 µM | TGI (NCI-H23 lung): 3.71 µM | TGI (SK-MEL-2 melanoma): 3.41 µM

CO/C(N)=C(\C#N)N=Cc1cccnc1
TGI (OVCAR-4 ovarian): > 100 µM | TGI (CCRF-CEM leukemia): > 100 µM | TGI (SF-268 CNS): > 100 µM | TGI (SK-MEL-28 melanoma): > 100000 nM | TGI (MCF7 breast): > 100 µM | TGI (COLO 205 colon): > 100 µM | TGI (A549 NSCLC): > 100 µM | TGI (UACC-257 melanoma): > 100 µM | TGI (SN12C renal): > 100 µM | TGI (NCI/ADR-RES ovarian): > 100 µM | TGI (UACC-62 melanoma): > 100000 nM | TGI (SK-MEL-5 melanoma): > 100 µM | TGI (HCC-2998 colon): > 100000 nM | TGI (SF-539 CNS): > 100 µM | TGI (IGROV1 ovarian): > 100 µM | TGI (LOX IMVI melanoma): > 100 µM | TGI (HL-60(TB) leukemia): > 100 µM | TGI (M14 melanoma): > 100 µM | TGI (MDA-N): > 100000 nM | TGI (MDA-MB-435): > 100 µM | TGI (KM12 colon): > 100000 nM | TGI (MALME-3M melanoma): > 100 µM | TGI (SK-OV-3 ovarian): > 100000 nM | TGI (MOLT-4 leukemia): > 100 µM | TGI (RXF 393 renal): > 100000 nM | TGI (U251 CNS): > 100 µM | TGI (OVCAR-3 ovarian): > 100 µM | TGI (PC-3 prostate): > 100000 nM | TGI (TK-10 renal): > 100 µM | TGI (RPMI-8226 leukemia): > 100 µM | TGI (HCT-15 colon): > 100 µM | TGI (HCT-116 colon): > 100 µM | TGI (DU-145 prostate): > 100 µM | TGI (HOP-62 NSCLC): > 100 µM | TGI (HT29 colon): > 100000 nM | TGI (OVCAR-5 ovarian): > 100 µM | TGI (HOP-92 NSCLC): > 100 µM | TGI (BT-549 breast): > 100 µM | TGI (K-562 leukemia): > 100000 nM | TGI (MDA-MB-231 breast): > 100 µM | TGI (CAKI-1 renal): > 100000 nM | TGI (A498 renal): > 100 µM | TGI (SW-620 colon): > 100 µM | TGI (NCI-H226 lung): > 100 µM | TGI (SF-295 CNS): > 100 µM | TGI (SNB-75 CNS): > 100000 nM | TGI (OVCAR-8 ovarian): > 100000 nM | TGI (EKVX NSCLC): > 100 µM | TGI (T-47D breast): > 100 µM | TGI (786-0 renal): > 100 µM | TGI (NCI-H23 lung): > 100 µM | TGI (SK-MEL-2 melanoma): > 100 µM
